Experiments:
[1] = tested on: bovine monocyte-derived macrophages; experiment: LPS-induced lactate production (LactateGlo); assay type: cell-based; conditions: CATH2 24 hr, removal, 3-day rest, LPS 24 hours; vs vehicle
Excerpt: (§1) Peripheral blood mononuclear cells (PBMC) were isolated from bovine blood using ficoll gradients. Bovine monocytes were isolated from PBMC using magnetic assisted cell sorting to positively select for CD14+ cells using anti-human CD14 microbeads (Miltenyi Biotec). Purified bovine blood CD14+ monocytes were differentiated into macrophages using an M2-skewing differentiation factor (recombinant bovine M-CSF) over 7 days then exposed to CATH2 or a vehicle control in the presence of bovine casein to mimic aspects of the mammary gland for 24 hr. Following treatment, vehicle and drug were removed and cells were washed to eliminate residual drug and monocyte-derived macrophages were rested for 3 days in order to assess reprogramming. Following the rest period, a subset of vehicle- and CATH2-trained monocyte-derived macrophages were assessed for epigenetic and transcriptomic changes. The remaining cells were challenged with LPS or E. coli bioparticle labeled with pH-sensitive pHrodo green dye and key parameters for macrophage activation/immune response were assessed including glycolytic activity, surface marker expression, gene expression, cytokine production, phagocytosis, reactive nitrogen species production, and miRNA profiling.
Lactate levels in cell culture supernatant were quantified using LactateGlo® (Promega) according to manufacturer's instructions.

[2] = tested on: bovine monocyte-derived macrophages; experiment: microRNASeq analysis; assay type: cell-based; conditions: CATH2 vs vehicle
Excerpt: as §1
Bovine monocyte-derived macrophages were lysed in Buffer RLT with addition of (3-mercaptoethanol (QIAGEN) and stored at −80° C. until miRNA/mRNA isolations could be performed. Total RNA including miRNA was isolated from cell lysates using the miRNeasy Tissues/Cells Advanced kit (QIAGEN) following the manufacturer's instructions. mRNA and miRNA libraries were prepared using the TruSeq Stranded mRNA Library Prep Kit (Illumina) and QIAseq miRNA Library Kit, respectively (QIAGEN) according to the manufacturer's instructions. Libraries were run on the Illumina NextSeq550 System. Sequencing data were analyzed using CLC Genomics Workbench software and QIAGEN Ingenuity Pathway Analysis (IPA).

[3] = 3-day rest, 8-hour post-LPS, Experiment A
[4] = 3-day rest, 8-hour post-LPS, Experiment B
[5] = 3-day rest, 24-hour post-LPS, Experiment A
[6] = 3-day rest, 24-hour post-LPS, Experiment B
[7] = after 3-day rest, prior to LPS challenge

RFGRFLRKIRRFRPKVTITIQGSARFG [CATH2, cathelicidin 2 peptide]
LPS-induced lactate production in supernatant [1]: increased lactate production | bta-miR-146b Fold change [2, 3]: 2.85 | bta-miR-146b Log2 fold change [2, 3]: 1.51 | bta-miR-148a Fold change [2, 3]: −1.79 | bta-miR-148a Log2 fold change [2, 3]: −0.84 | bta-miR-181b Fold change [2, 3]: 1.60 | bta-miR-181b Log2 fold change [2, 3]: 0.68 | bta-miR-1814c Fold change [2, 3]: −1.77 | bta-miR-1814c Log2 fold change [2, 3]: −0.83 | hsa-miR-155-5p Fold change [2, 3]: 1.89 | hsa-miR-155-5p Log2 fold change [2, 3]: 0.92 | bta-miR-146b Fold change [2, 4]: 1.56 | bta-miR-146b Log2 fold change [2, 4]: 0.64 | bta-miR-148a Fold change [2, 4]: −1.44 | bta-miR-148a Log2 fold change [2, 4]: −0.52 | bta-miR-181b Fold change [2, 4]: 1.76 | bta-miR-181b Log2 fold change [2, 4]: 0.82 | bta-miR-1814c Fold change [2, 4]: −2.05 | bta-miR-1814c Log2 fold change [2, 4]: −1.04 | hsa-miR-155-5p Fold change [2, 4]: 2.20 | hsa-miR-155-5p Log2 fold change [2, 4]: 1.14 | bta-miR-146b Fold change [2, 5]: 4.52 | bta-miR-146b Log2 fold change [2, 5]: 2.18 | hsa-miR-146b-5p Fold change [2, 5]: 2.27 | hsa-miR-146b-5p Log2 fold change [2, 5]: 1.18 | bta-miR-146b Fold change [2, 6]: 4.34 | bta-miR-146b Log2 fold change [2, 6]: 2.12 | hsa-miR-146b-5p Fold change [2, 6]: 1.71 | hsa-miR-146b-5p Log2 fold change [2, 6]: 0.77 | bta-miR-27a-3p Fold change [2, 7]: −1.31 | bta-miR-27a-3p Log fold change [2, 7]: −0.39 | bta-miR-29a Fold change [2, 7]: −1.36 | bta-miR-29a Log fold change [2, 7]: −0.44 | bta-miR-29c Fold change [2, 7]: −1.45 | bta-miR-29c Log fold change [2, 7]: −0.54 | bta-miR-30f Fold change [2, 7]: 1.57 | bta-miR-30f Log fold change [2, 7]: 0.65 | bta-miR-92b Fold change [2, 7]: 1.52 | bta-miR-92b Log fold change [2, 7]: 0.60 | bta-miR-101 Fold change [2, 7]: −1.47 | bta-miR-101 Log fold change [2, 7]: −0.55 | bta-miR-142-5p Fold change [2, 7]: −1.43 | bta-miR-142-5p Log fold change [2, 7]: −0.51 | bta-miR-148a Fold change [2, 7]: −1.78 | bta-miR-148a Log fold change [2, 7]: −0.83 | bta-miR-148b Fold change [2, 7]: −1.43 | bta-miR-148b Log fold change [2, 7]: −0.51 | bta-miR-149-5p Fold change [2, 7]: 1.43 | bta-miR-149-5p Log fold change [2, 7]: 0.52 | bta-miR-181b Fold change [2, 7]: 1.38 | bta-miR-181b Log fold change [2, 7]: 0.47 | bta-miR-184 Fold change [2, 7]: 2.61 | bta-miR-184 Log fold change [2, 7]: 1.38 | bta-miR-187 Fold change [2, 7]: −2.07 | bta-miR-187 Log fold change [2, 7]: −1.05 | bta-miR-193a-5p Fold change [2, 7]: 1.60 | bta-miR-193a-5p Log fold change [2, 7]: 0.68 | bta-miR-197 Fold change [2, 7]: 1.37 | bta-miR-197 Log fold change [2, 7]: 0.46 | bta-miR-199a-3p Fold change [2, 7]: 1.92 | bta-miR-199a-3p Log fold change [2, 7]: 0.94 | bta-miR-296-5p Fold change [2, 7]: 2.10 | bta-miR-296-5p Log fold change [2, 7]: 1.07 | bta-miR-320a Fold change [2, 7]: 1.68 | bta-miR-320a Log fold change [2, 7]: 0.75 | bta-miR-326 Fold change [2, 7]: 1.47 | bta-miR-326 Log fold change [2, 7]: 0.55 | bta-miR-331-3p Fold change [2, 7]: 1.61 | bta-miR-331-3p Log fold change [2, 7]: 0.69 | bta-miR-365-3p Fold change [2, 7]: 1.59 | bta-miR-365-3p Log fold change [2, 7]: 0.67 | bta-miR-374a Fold change [2, 7]: −1.59 | bta-miR-374a Log fold change [2, 7]: −0.67 | bta-miR-500 Fold change [2, 7]: 1.43 | bta-miR-500 Log fold change [2, 7]: 0.51 | bta-miR-652 Fold change [2, 7]: 1.46 | bta-miR-652 Log fold change [2, 7]: 0.54 | bta-miR-877 Fold change [2, 7]: 1.93 | bta-miR-877 Log fold change [2, 7]: 0.95 | bta-miR-1249 Fold change [2, 7]: 1.43 | bta-miR-1249 Log fold change [2, 7]: 0.52 | bta-miR-1260b Fold change [2, 7]: 1.63 | bta-miR-1260b Log fold change [2, 7]: 0.70 | bta-miR-1307 Fold change [2, 7]: 1.49 | bta-miR-1307 Log fold change [2, 7]: 0.57 | bta-miR-2285bf Fold change [2, 7]: −1.52 | bta-miR-2285bf Log fold change [2, 7]: −0.61 | bta-miR-2447 Fold change [2, 7]: 1.92 | bta-miR-2447 Log fold change [2, 7]: 0.94 | bta-miR-6523a Fold change [2, 7]: 1.39 | bta-miR-6523a Log fold change [2, 7]: 0.47 | bta-miR-6529a Fold change [2, 7]: 1.32 | bta-miR-6529a Log fold change [2, 7]: 0.40 | hsa-let-7d-3p Fold change [2, 7]: 1.62 | hsa-let-7d-3p Log fold change [2, 7]: 0.70 | hsa-miR-30e-5p Fold change [2, 7]: −1.45 | hsa-miR-30e-5p Log fold change [2, 7]: −0.54 | hsa-miR-16-1-3p Fold change [2, 7]: −2.57 | hsa-miR-16-1-3p Log fold change [2, 7]: −1.36 | hsa-miR-21-5p Fold change [2, 7]: −1.33 | hsa-miR-21-5p Log fold change [2, 7]: −0.41 | hsa-miR-29a-3p Fold change [2, 7]: −1.32 | hsa-miR-29a-3p Log fold change [2, 7]: 0.40 | hsa-miR-29b-1-5p Fold change [2, 7]: 1.90 | hsa-miR-29b-1-5p Log fold change [2, 7]: 0.92 | hsa-miR-142-3p Fold change [2, 7]: −1.57 | hsa-miR-142-3p Log fold change [2, 7]: −0.65 | hsa-miR-142-5p Fold change [2, 7]: −1.55 | hsa-miR-142-5p Log fold change [2, 7]: −0.63 | hsa-miR-143-3p Fold change [2, 7]: −1.96 | hsa-miR-143-3p Log fold change [2, 7]: −0.97 | hsa-miR-152-3p Fold change [2, 7]: −1.37 | hsa-miR-152-3p Log fold change [2, 7]: 0.45 | hsa-miR-155-5p Fold change [2, 7]: 1.31 | hsa-miR-155-5p Log fold change [2, 7]: 0.39 | hsa-miR-192-5p Fold change [2, 7]: −1.47 | hsa-miR-192-5p Log fold change [2, 7]: −0.56 | hsa-miR-340-5p Fold change [2, 7]: −1.47 | hsa-miR-340-5p Log fold change [2, 7]: −0.56 | hsa-miR-532-3p Fold change [2, 7]: 1.51 | hsa-miR-532-3p Log fold change [2, 7]: 0.60 | hsa-miR-574-3p Fold change [2, 7]: 1.36 | hsa-miR-574-3p Log fold change [2, 7]: 0.44 | hsa-miR-1260b Fold change [2, 7]: 2.19 | hsa-miR-1260b Log fold change [2, 7]: 1.13 | hsa-miR-9983-3p Fold change [2, 7]: −1.40 | hsa-miR-9983-3p Log fold change [2, 7]: 0.48 | hsa-miR-10395-3p Fold change [2, 7]: −2.92 | hsa-miR-10395-3p Log fold change [2, 7]: −1.55 | hsa-miR-12135 Fold change [2, 7]: −1.63 | hsa-miR-12135 Log fold change [2, 7]: −0.71 | Number of miRNAs significantly altered ([2]; after rest period, prior to LPS challenge): 51

Reference: patent US20250295732A1, “COMPOSITIONS AND METHODS FOR ACTIVATING INNATE IMMUNITY” (Zoetis Services LLC, priority 2021, published 2025)
